“Also recorded” adds a separate entry of the source. Where two headings read alike, the source gives them in different places.
Tests used:
[1] = tested on: TPA-induced epidermal hyperplasia; assay: Inhibition of TPA-induced epidermal hyperplasia (epidermal thickness) on back skin of mice; format: in vivo, BALB/c mice; details: for Synergistic factor: IC50 without auranofin divided by IC50 with auranofin (0.2%); for Emax: read-out: Emax (% inhibition); for Synergism with auranofin, epidermal hyperplasia (in words): auranofin (0.2%) co-administered; for Relative potency: hydrocortisone acetate = 1.0; for Percent increase in the apparent potency of the steroid: in presence of auranofin (0.2%)
Experimental: (§1) The mice were housed in stainless steel cages, 6 mice per cage under normal laboratory conditions (room temperature at about 22° C.) at least 7 days before the experiments for acclimatization. Food and water were allowed ad libitum throughout the experiment period. The backs of the mice were shaved with an electric clipper two days before each treatment and only those mice showing no hair regrowth were used (i.e., the mice in the resting phase of the hair growth cycle were selected). During treatment, the mice were held with their tails and put on top of the cage so that they grasped the cage and rested there. The solutions were applied to an area approximately 2 cm×2 cm on the shaved back of the mice by using a “Pipetman” to apply the solution. If auranofin ointment or ointment base was applied, the amount was standardized by using a microspatula which was crimped at one end, the ointment was then put into the ridge and the excess removed by means of another microspatula and applied sparingly twice a day. After a fixed time, the mice were killed routinely by cervical dislocation between 9 a.m. and 11 a.m. to avoid variations due to circadian rhythms, and an area (1 cm×1 cm) was excised from the centre of the treated area by scalpel and scissors. The rest of the tissues were disposed by combustion. The tissues were then fixed, embedded, sectioned and stained.
Epidermal thickness was determined by image analysis. This image analysis system was a minicomputer (Tracor Northern TN8500) attached to a light microscope (Zeiss Axioplan) and a camcorder (Sony DXC-3000P). Sections were taken from each tissue block and 20 measurements were taken at fixed intervals from each section. The average value for the 20 measurements was obtained and entered as one value for each mouse. The mean and SEM for the six mice in each treatment group were calculated.
(§2) The percent inhibition of drug on TPA-induced skin responses (i.e., epidermal hyperplasia, inflammatory cell infiltration and skin-fold thickness) was calculated by using the following formula: [formula]
(§3) This provides estimates of (a) the potency, (b) the efficacy or maximum effect (Emax) and the slope of the log concentration-response curve by using Hill coefficient (γ). The Hill Equation may be expressed as follows: [formula] where IC50 is the drug concentration producing 50% of the maximal response and Emax refers to the maximal effect produced by the drug and is also termed efficacy. Efficacy is the measurement of the intrinsic ability of a drug to initiate a response once it occupies receptor sites. […] The Hill coefficient (γ) measures the slope of the dose-effect curve which can be markedly influenced by the shape of the curve that describes the binding of the drug to the receptor. For many drugs, y lies between 0.6 and 1.5. […] On the other hand, when γ is less than 1, with a shallow hyperbolic concentration effect relationship, the activity occurs over a wide range of drug levels.
(§4) In the present study, concentration-response curves were obtained for a series of corticosteroids. In these experiments, curve fitting was accomplished using a computer programme called “The Scientist” (MicroMath Scientific Software, Salt Lake City, Utah, USA.) in which the parameters, Emax, IC50 and Hill coefficient (γ) for each steroids were estimated by using non-linear regression and least square fits.
Mice were divided into treatment groups. TPA and corticosteroids were premixed to the concentrations required and applied to the backs of mice immediately. For those steroids not very soluble in acetone (i.e., betamethasone, dexamethasone, hydrocortisone and hydrocortisone acetate), the drugs were dissolved in 100 μL dimethylformamide before further dilution with acetone. The efficacy of corticosteroids in inhibiting epidermal hyperplasia, inflammatory cell infiltration and skin-fold thickness was assessed as described previously. Concentration-response curves were determined after computer-fitting of data.

[2] = tested on: TPA-induced inflammatory cell infiltration into the dermis; assay: Inhibition of TPA-induced inflammatory cell infiltration into the dermis of mice; format: in vivo, BALB/c mice; details: for Synergistic factor: IC50 without auranofin divided by IC50 with auranofin (0.2%); for Emax: read-out: Emax (% inhibition); for Relative potency: hydrocortisone acetate = 1.0; for Increase in apparent IC50: in presence of auranofin (0.2%), Table 10
Experimental: as §1
Infiltration of inflammatory cells was determined by the same image analysis system using the section taken from the block of mouse skin embedded in paraffin wax or Spurr's resin and stained with haematoxylin and eosin or toluidine blue respectively. For each section, 10 fields, unless otherwise stated, were chosen randomly and the cell density per mm^2 of field determined. The average value for the 10 fields was obtained and entered as one value for each mouse. The mean and SEM for the six mice in each treatment group were calculated.
The measurement of the inflammatory cell infiltration included the background values which included other materials in the dermis stained in the same way.
as §2, §3, §4
Mice were divided into treatment groups. TPA and corticosteroids were premixed to the concentrations required and applied to the backs of mice immediately.

[3] = Mus musculus, from Hill equation, concentration that produced 50% of Emax, read-out: IC50 for inhibition of epidermal thickening (M × 10^−4)
[4] = Mus musculus, read from concentration-response curve, concentration that inhibited 50% of the TPA effect, read-out: IC50 for inhibition of epidermal thickening (M × 10^−4)
[5] = Mus musculus, topical, Hill equation fit, means ± SD, steroid premixed with TPA, topical, read-out: IC50 (M × 10^−4)
[6] = Mus musculus, with auranofin (0.2%), from computer fitted graph, means ± SD, read-out: Apparent IC50 (M × 10^−4) with auranofin
[7] = Mus musculus, without auranofin, from computer fitted graph, means ± SD, read-out: Apparent IC50 (M × 10^−4) without auranofin
[8] = Mus musculus, Hill equation fit, means ± SD, steroid premixed with TPA, topical
[9] = Mus musculus, from Hill equation, concentration that produced 50% of Emax, read-out: IC50 for inhibition of inflammatory cell infiltration in the dermis (M × 10^−4)
[10] = Mus musculus, read from concentration-response curve, concentration that inhibited 50% of the TPA effect, read-out: IC50 for inhibition of inflammatory cell infiltration in the dermis (M × 10^−4)
[11] = Hill equation fit, means ± SD, steroid premixed with TPA, topical
[12] = Hill equation fit, means ± SD, steroid premixed with TPA, topical, read-out: IC50 (M × 10^−4)
[13] = with auranofin (0.2%), from computer fitted graph, means ± SD, read-out: Apparent IC50 (M × 10^−4) with auranofin
[14] = without auranofin, from computer fitted graph, means ± SD, read-out: Apparent IC50 (M × 10^−4) without auranofin

Compound	Synergistic factor [1]	IC50 [1, 3]	IC50 [1, 4]	IC50 [1, 5]	IC50 [1, 6]	IC50 [1, 7]	Emax [1, 8]	Synergism with auranofin, epidermal hyperplasia (in words) [1]	Relative potency ([1]; from Hill-equation IC50)	Relative potency ([1]; from IC50 read from curve)	Percent increase in the apparent potency of the steroid [1]	Synergistic factor [2]	IC50 [2, 9]	IC50 [2, 10]	IC50 [2, 5]	IC50 [2, 6]	IC50 [2, 7]	Emax [2, 8]	Relative potency ([2]; from Hill-equation IC50)	Relative potency ([2]; from IC50 read from curve)	further results
CCC(=O)OCC(=O)[C@@]1(OC(=O)CC)[C@@H](C)C[C@H]2[C@@H]3CCC4=CC(=O)C=C[C@]4(C)[C@@]3(F)[C@@H](O)C[C@@]21C [Betamethasone dipropionate, betamethasone dipropionate]	56.0	81 µM	140 µM	81 ± 36 µM	2.5 ± 0.3 µM	140 ± 36 µM	95.6 ± 6.55%	massive synergism	45.27	50.0	5,600%	4.44	29 µM	40 µM	29 ± 6 µM	9 ± 1.6 µM	40 ± 6 µM	90.8 ± 3.71%	266.66	275.0	Potency for inhibition of TPA-induced epidermal hyperplasia (in words) [1]: medium to strong potencies; also recorded: strong to very strong potencies; Inhibition of TPA effect (epidermal hyperplasia) ([1]; 1×10^−5 M combined with auranofin (0.2%), FIG. 1): about 65%; inhibition at 10 µM ([1]; Mus musculus, 1×10^−5 M alone, FIG. 1, read-out: Inhibition of TPA effect (epidermal hyperplasia)): ~20%; Ratio of concentration without auranofin to concentration with auranofin for the same effect ([1]; about 65% inhibition level): 50 times; Concentration that, in the absence of auranofin, produced the same effect as the combination ([1]; same effect as 1×10^−5 M with auranofin (0.2%)): 500 µM; Potency for inhibition of TPA-induced inflammatory cell infiltration (in words) [2]: medium to strong potencies; also recorded: strong to very strong anti-inflammatory effect; Increase in apparent IC50 [2]: 400-500%
C[C@@H]1C[C@H]2[C@@H]3CCC4=CC(=O)C=C[C@]4(C)[C@@]3(Cl)[C@@H](O)C[C@]2(C)[C@@]1(OC(=O)c1ccco1)C(=O)CCl [Mometasone furoate, mometasone furoate]	1.29							no synergism or even additive effect	159.43	175.0		37.50							386.65	366.67	Emax (% inhibition) [1, 11]: 83.31 ± 3.04 % inhibition; IC50 [1, 12]: 23 ± 4 µM; IC50 ([1]; from Hill equation, concentration that produced 50% of Emax, read-out: IC50 for inhibition of epidermal thickening (M × 10^−4)): 23 µM; Potency for inhibition of TPA-induced epidermal hyperplasia (in words) ([1]; ranking in text): strong to very strong potencies; IC50 ([1]; read from concentration-response curve, concentration that inhibited 50% of the TPA effect, read-out: IC50 for inhibition of epidermal thickening (M × 10^−4)): 40 µM; IC50 [1, 13]: 31 ± 5 µM; IC50 [1, 14]: 40 ± 4 µM; Emax (% inhibition) [2, 11]: 89.98 ± 4.88^ % inhibition; IC50 [2, 12]: 20 ± 5 µM; Synergism with auranofin, inflammatory cell infiltration (in words) ([2]; auranofin (0.2%), FIG. 2): massive synergism; Concentration that, in the absence of auranofin, produced an equal effect to the combination ([2]; equal to 5×10^−4 M with auranofin (0.2%), FIG. 2): 1 mM; IC50 ([2]; from Hill equation, concentration that produced 50% of Emax, read-out: IC50 for inhibition of inflammatory cell infiltration in the dermis (M × 10^−4)): 20 µM; Increase in apparent IC50 [2]: about 3,800%; Potency for inhibition of TPA-induced inflammatory cell infiltration (in words) ([2]; ranking in text): strong to very strong anti-inflammatory effect; IC50 ([2]; read from concentration-response curve, concentration that inhibited 50% of the TPA effect, read-out: IC50 for inhibition of inflammatory cell infiltration in the dermis (M × 10^−4)): 30 µM; IC50 [2, 13]: 0.8 ± 0.1 µM; IC50 [2, 14]: 30 ± 5 µM
C[C@H]1C[C@H]2[C@@H]3CCC4=CC(=O)C=C[C@]4(C)[C@@]3(F)[C@@H](O)C[C@]2(C)[C@@]1(O)C(=O)CO [Betamethasone, betamethasone]		2720 µM	5000 µM	1380 µM			94.2 ± 7.33%		1.35	1.40			1310 µM	2100 µM	1310 ± 165 µM			74.5 ± 3.29%	5.89	5.23	
C[C@]12CCC(=O)C=C1CC[C@@H]1[C@@H]2[C@@H](O)C[C@@]2(C)[C@H]1CC[C@]2(O)C(=O)CO [Hydrocortisone, hydrocortisone]	2.05	4620 µM	4510 µM	4620 ± 1320 µM	2200 ± 1120 µM	4500 ± 1320 µM	99 ± 9.54%	minor degree of synergism	0.79	1.55	100%	1.94	6150 µM	6000 µM	6150 ± 966 µM	3100 ± 412 µM	6000 ± 966 µM	100%	1.26	1.83	Potency for inhibition of TPA-induced epidermal hyperplasia (in words) ([1]; ranking in text): low to medium potencies; Potency for inhibition of TPA-induced inflammatory cell infiltration (in words) ([2]; ranking in text): low to medium potencies

Source: patent publication US20050267204A1, “Synergistic gold-containing compositions” (MEDICAL INNOVATIONS LIMITED, priority 1996, published 2005)
